# According to PubChem BioAssay (NCI):
#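 Briefly, cells in 96-well plates were exposed to five compound concentrations for 48 h, and endpoints were estimated by linear interpolation. GI50 = concentration required for 50% inhibition of growth. TGI: total growth inhibition.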
# System: SW-620 colon
# Experiment: NCI anticancer screen, dose series, 48 h
Structure (SMILES),GI50 [µM],TGI [µM]
CC(=O)Oc1ccccc1C(=O)N=C1[Se]CCN1C(=O)c1ccccc1OC(C)=O,1.52,6.09
Cc1n(Cc2ccc3ccccc3c2)cc[n+]1Cc1ccc2ccccc2c1,1.77,11.7
O=C(O)Cc1c(O)ccc2ccccc12,,> 100
O=C1/C(=C\c2cccn2Cc2ccccc2)c2ccccc2N1c1c(Cl)cccc1Cl,> 100,> 100
Cc1sc2nc(NCCc3c[nH]c4ccc(Cl)cc34)[nH]c(=O)c2c1C,2.64,10.9
CSC1(CC(=O)N(C)C)C(=O)Nc2ccccc21 (stereo not drawn),,> 100
COc1cc(/C=C2\C(=O)Nc3ccc(F)cc32)cc(OC)c1OC,63.7,> 100
C#C[C@]1(O)CC[C@H]2[C@@H]3CC=C4c5sc(Nc6ccccc6)nc5CC[C@]4(C)[C@H]3CC[C@@]21C,2.06,5.85
O=C(O)c1c(-c2nccc3ccccc23)[nH]c(-c2ccccc2)c1S(=O)(=O)O,,> 100
COc1ccc(/C=c2/sc3n(c2=O)C(c2ccc(OC)c(OC)c2)C2=C(N=3)c3cc(F)ccc3OC2)cc1 (stereo not drawn),50.5,> 100
Cc1cn2c(/C=C3/C(=O)Nc4ccccc43)c(-c3ccc(Cl)cc3)nc2s1,15.1,38.2
O=C(O)c1cc(O)c2c(c1)C(C1c3cc(C(=O)O)cc(O)c3C(=O)c3c(OC4OC(CO)C(O)C(O)C4O)cccc31)c1cccc(OC3OC(CO)C(O)C(O)C3O)c1C2=O (stereo not drawn),> 100,> 100
O=C(CN(C1CCCCC1)C1CCCCC1)Nc1ccc(S(=O)(=O)c2ccc(NC(=O)CN(C3CCCCC3)C3CCCCC3)cc2)cc1,0.228,0.65
O=c1[nH]c2cc(Cl)ccc2n1C1CCN(CCCC(c2ccc(F)cc2)c2ccc(F)cc2)CC1,1.52,2.99
Cc1c[n+](Cc2ccc3ccccc3c2)cn1Cc1ccc2ccccc2c1,1.64,3.74
Nc1nc(Br)nc2c1ncn2C1CC(O)C(CO)O1 (stereo not drawn),16.5,> 100

Structure (SMILES),GI50 [µM],TGI [µM]
Nc1nc(Nc2ccccc2)c2ncn(Cc3cc4c(cc3Br)OCO4)c2n1,0.0471,> 100
CCOC(=O)N1CCN(C(=O)c2ccc(C(F)(F)F)nc2Nc2cc(Cl)ccc2C)CC1,15.4,92.9
Cc1ccc(Nc2nc(N)c(C(=O)c3ccc(C#N)cc3)s2)cc1,0.336,> 100
O=C1c2ccn(CCCCNC(CO)(CO)CO)c2C(=O)c2c1c(O)c1ccccc1c2O,2.02,13
COc1ccc(-c2cc(-c3cccn3C)c(C#N)c(N)n2)cc1OC,> 100,> 100
CN1CCc2c(Sc3ccc(C(=O)NO)cc3)c3ccccc3n2C1,1.92,5.22
COc1ccc(CNc2c3ccccc3nc3ccccc23)cc1OC,1.69,10.1
CN(C)c1ccc2nc3ccc(=O)cc-3sc2c1,1.36,> 100
CC(=O)c1c(CBr)n([O-])c2ccccc2[n+]1=O,2.04,4.15
O=C(Nc1ccc(Cl)cc1F)c1cc(Br)ccc1O,1.46,> 36.2
Nc1c(C(=O)N/N=C/c2ccc(-c3ccc(Cl)cc3)o2)cnn1-c1ccnc2c(C(F)(F)F)cccc12,> 100,> 100
CCN(CC)CC(C)(C)C(=O)/C=C/c1ccc(Cl)c(Cl)c1,1.76,4.21
CCN(CC)CCNCC(=O)Oc1ccc(/C=C/C(=O)CC(=O)/C=C/c2ccc(OC(=O)CNCCN(CC)CC)c(OC)c2)cc1OC,3.02,9.93
O=C(O)c1cccc(OCCO)c1,,> 100
COc1ccc(C2C(C#N)=C(N)OC3=C2COc2ccc(F)cc23)cc1OC (stereo not drawn),44.4,> 100
O=C(O)c1ccccc1-c1ccccc1C(=O)Nc1ccc2c(c1)Cc1cc(F)ccc1-2,,> 100

# System: HT29 colon
# Experiment: NCI anticancer screen, dose series, 48 h
Structure (SMILES),GI50 [µM],TGI [µM]
CC(=O)Oc1ccccc1C(=O)N=C1[Se]CCN1C(=O)c1ccccc1OC(C)=O,0.637,4.46
Cc1n(Cc2ccc3ccccc3c2)cc[n+]1Cc1ccc2ccccc2c1,0.521,3.02
O=C(O)Cc1c(O)ccc2ccccc12,,> 100
O=C1/C(=C\c2cccn2Cc2ccccc2)c2ccccc2N1c1c(Cl)cccc1Cl,10.7,> 100
Cc1sc2nc(NCCc3c[nH]c4ccc(Cl)cc34)[nH]c(=O)c2c1C,3.06,10.8
CSC1(CC(=O)N(C)C)C(=O)Nc2ccccc21 (stereo not drawn),,> 100
COc1cc(/C=C2\C(=O)Nc3ccc(F)cc32)cc(OC)c1OC,24.8,> 100
C#C[C@]1(O)CC[C@H]2[C@@H]3CC=C4c5sc(Nc6ccccc6)nc5CC[C@]4(C)[C@H]3CC[C@@]21C,1.81,6.68
O=C(O)c1c(-c2nccc3ccccc23)[nH]c(-c2ccccc2)c1S(=O)(=O)O,,> 100
COc1ccc(/C=c2/sc3n(c2=O)C(c2ccc(OC)c(OC)c2)C2=C(N=3)c3cc(F)ccc3OC2)cc1 (stereo not drawn),16.2,> 100
Cc1cn2c(/C=C3/C(=O)Nc4ccccc43)c(-c3ccc(Cl)cc3)nc2s1,9.23,16.2
O=C(O)c1cc(O)c2c(c1)C(C1c3cc(C(=O)O)cc(O)c3C(=O)c3c(OC4OC(CO)C(O)C(O)C4O)cccc31)c1cccc(OC3OC(CO)C(O)C(O)C3O)c1C2=O (stereo not drawn),> 100,> 100
O=C(CN(C1CCCCC1)C1CCCCC1)Nc1ccc(S(=O)(=O)c2ccc(NC(=O)CN(C3CCCCC3)C3CCCCC3)cc2)cc1,0.39,1.44
O=c1[nH]c2cc(Cl)ccc2n1C1CCN(CCCC(c2ccc(F)cc2)c2ccc(F)cc2)CC1,0.766,2.16
Cc1c[n+](Cc2ccc3ccccc3c2)cn1Cc1ccc2ccccc2c1,1.07,2.53
Nc1nc(Br)nc2c1ncn2C1CC(O)C(CO)O1 (stereo not drawn),47.7,> 100
Nc1nc(Nc2ccccc2)c2ncn(Cc3cc4c(cc3Br)OCO4)c2n1,0.0484,0.706
CCOC(=O)N1CCN(C(=O)c2ccc(C(F)(F)F)nc2Nc2cc(Cl)ccc2C)CC1,13.2,34.8
Cc1ccc(Nc2nc(N)c(C(=O)c3ccc(C#N)cc3)s2)cc1,0.25,> 90.2
O=C1c2ccn(CCCCNC(CO)(CO)CO)c2C(=O)c2c1c(O)c1ccccc1c2O,1.83,4.37
COc1ccc(-c2cc(-c3cccn3C)c(C#N)c(N)n2)cc1OC,> 100,> 100
CN1CCc2c(Sc3ccc(C(=O)NO)cc3)c3ccccc3n2C1,2.83,12.2
COc1ccc(CNc2c3ccccc3nc3ccccc23)cc1OC,1.71,7.85
CN(C)c1ccc2nc3ccc(=O)cc-3sc2c1,4.26,37.1
CC(=O)c1c(CBr)n([O-])c2ccccc2[n+]1=O,8.34,25.9
O=C(Nc1ccc(Cl)cc1F)c1cc(Br)ccc1O,3.67,> 100
Nc1c(C(=O)N/N=C/c2ccc(-c3ccc(Cl)cc3)o2)cnn1-c1ccnc2c(C(F)(F)F)cccc12,77.4,> 100
CCN(CC)CCNCC(=O)Oc1ccc(/C=C/C(=O)CC(=O)/C=C/c2ccc(OC(=O)CNCCN(CC)CC)c(OC)c2)cc1OC,2.36,6.02
O=C(O)c1cccc(OCCO)c1,,> 100
